Laboratory results published in patent publication US6143766A, “Benzopyranone and quinolone inhibitors of ras farnesyl transferase” (Warner-Lambert Company, priority 2000, dated 2000).
Where two headings read alike, the source gives them in different places.

Key:
[1] = tested on: ras protein in ras-transformed cells; experiment: Mobility Shift Assay (ras farnesylation in ras-transformed cells); type: cell-based; details: 18-hour incubation, read-out: Mobility Shift MED
Method: Twenty-four hours after planting 2×10^6 ras-transformed cells per treatment condition, the farnesylation inhibitor is added at varying concentrations. Following an 18-hour incubation period, cells are lysed in phosphate-buffered saline containing 1% Triton X-100, 0.5% sodium deoxycholate, and 0.1% SDS (sodium dodecyl sulfate), pH 7.4 in the presence of several protease inhibitors (PMSF (phenylmethylsulfonylfluoride), antipain, leupeptin, pepstatin A, and aprotinin all at 1 μg/mL). Ras protein is immunoprecipitated from the supernatants by the addition of 3 μg v-H-ras Ab-2 (Y13-259 antibody from Oncogene Science, Cambridge, Mass.). After overnight immunoprecipitation, 30 μL of a 50% protein G-Sepharose slurry (Pharmacia, Uppsala, Sweden) is added followed by 45-minute incubation. Pellets are resuspended in 2X tris-glycine loading buffer (Novex, San Diego, Calif.) containing 5% mercaptoethanol and then denatured by 5 minutes boiling prior to electrophoresis on 14% Tris-glycine SDS gels. Using Western transfer techniques, proteins are transferred to nitrocellulose membranes followed by blocking in blocking buffer. Upon overnight incubation with primary antibody (pan-ras Ab-2 from Oncogene Science, Cambridge, Mass.), an antimouse HRP (horseradish peroxidase) conjugate secondary antibody (Amersham) is employed for detection of the ras protein. Blots are developed using ECL (enhanced chemiluminescence) techniques (Amersham, Arlington Heights, Ill.).

rat FPT = target: T1, rat FPT (Rattus norvegicus, UniProt Q02293+Q04631); experiment: PFT Inhibitory Activity (protein farnesyl transferase); type: biochemical; details: 30° C., 30 minutes
T1 construct: made in house; host or cells: Sf9 insect cells
Method: The protein farnesyl transferase (PFT) or farnesyl protein transferase (FPT) inhibitory activity of compounds of the present invention were assayed in HEPES buffer (pH 7.4) containing 5 mM potassium phosphate and 20 μM ZnCl2. The solution also contained 5 mM DTT (dithiothreitol), 5 mM MgCl2, and 0.1% PEG 8000. Assays were performed in 96-well plates (Wallec, Finland) and employed solutions composed of varying concentrations of a compound of the present invention in 10% DMSO (dimethylsulfoxide). Upon addition of both substrates, radiolabeled farnesyl pyrophosphate ([1^3 H], specific activity 15-30 Ci/mmol, final concentration 134 nM) and (biotinyl)-Ahe-Thr-Lys-Cys-Val-Ile-Met ([3aS[3a α, 4 β, 6a α]-hexahydro-2-oxo-1H-thieno[3,4-d]imidazole-5-pentanoicacid]-[7-aminoheptanoic acid]-Thr-Lys-Cys-Val-Ile-Met). Ahe is 7-aminoheptanoic acid, Thr is threonine, Lys is lysine, Cys is cysteine, Val is valine, Ile is isoleucine, and Met is methionine (final concentration 0.2 μM); the enzyme reaction was started by addition of SF9 affinity purified rat FPT. After incubation at 30° C. for 30 minutes, the reaction was terminated by diluting the reaction 2.5-fold with a stop buffer containing 1.5 M magnesium acetate, 0.2 M H3 PO4, 0.5% BSA (bovine serum albumin), and strepavidin beads (Amersham, Arlington Heights, Ill.) at a concentration of 1.3 mg/mL. After allowing the plate to settle for 30 minutes at room temperature, radioactivity was quantitated on a microBeta counter (Model 1450, Wallec, Finland). The assay was also carried out without 5 mM potassium phosphate.

human colon carcinoma = details: 100 mg/kg, xenografts in nude mice; cited from earlier work
[2] = tested on: HT1080 human fibrosarcoma; details: 100 mg/kg, xenografts in nude mice; cited from earlier work
[3] = tested on: EJ-1 human bladder carcinoma; details: 100 mg/kg, xenografts in nude mice; cited from earlier work
[4] = tested on: human lung carcinoma with K-ras mutation and p53 deletion; details: nude mice; cited from earlier work
[5] = tested on: mammary and salivary carcinomas in ras transgenic mice; details: daily administration; cited from earlier work
[6] = HEPES buffer pH 7.4 with 5 mM potassium phosphate, read-out: IC50 (μM) Hepes + 5 mM Phosphate
[7] = HEPES buffer pH 7.4 without 5 mM potassium phosphate, read-out: IC50 (μM) Hepes

| SMILES | minimal effective concentration [1] | IC50 (rat FPT; [6]) | IC50 (rat FPT; [7]) | also measured |
| --- | --- | --- | --- | --- |
| Cn1c(=O)cc(-c2cccc(Cl)c2)c2cc(OC(Cn3ccnc3)c3ccccc3)ccc21 (stereo not drawn) [Example 1, 4-(3-Chloro-phenyl)-6-(2-imidazol-1-yl-1-phenyl-ethoxy)-1-methyl-1H-quinolin-2-one] | 1 µM | 0.068 µM | 0.064 µM |  |
| Cn1c(=O)cc(-c2cccc(Cl)c2)c2ccc(OC(Cn3ccnc3)c3ccccc3)cc21 (stereo not drawn) [Example 2, 4-(3-Chloro-phenyl)-7-(2-imidazol-1-yl-1-phenyl-ethoxy)-1-methyl-1H-quinolin-2-one] | > 1 µM | 0.99 µM | 0.7 µM |  |
| Cn1c(=O)cc(-c2cccc(Cl)c2)c2cc(OCc3c[nH]cn3)ccc21 [Example 3, 4-(3-Chloro-phenyl)-6-(1H-imidazol-4-ylmethoxy)-1-methyl-1H-quinolin-2-one] |  | 3.6 µM | 9.8 µM |  |
| Cn1cncc1C(Oc1ccc2c(c1)c(-c1cccc(Cl)c1)cc(=O)n2C)c1ccccc1 (stereo not drawn) [Example 4, 4-(3-Chloro-phenyl)-1-methyl-6-[(3-methyl-3H-imidazol-4-yl)-phenyl-methoxy]-1H-quinolin-2-one] |  | 1.8 µM | 1.7 µM |  |
| O=c1cc(-c2ccccc2)c2ccc(OC(Cn3ccnc3)c3ccccc3)cc2o1 (stereo not drawn) [Example 5, 7-(2-Imidazol-1-yl-1-phenyl-ethoxy)-4-phenyl-chromen-2-one] | 0.2 µM | 0.8 µM | 0.74 µM |  |
| O=c1cc(-c2cccc(Cl)c2)c2ccc(OC(Cn3ccnc3)c3ccccc3)cc2o1 (stereo not drawn) [Example 6, 4-(3-Chloro-phenyl)-7-(2-imidazol-1-yl-1-phenyl-ethoxy)-chromen-2-one] | 1 µM | 0.32 µM | 0.29 µM |  |
| Cc1cccc(-c2cc(=O)oc3cc(OC(Cn4ccnc4)c4ccccc4)ccc23)c1 (stereo not drawn) [Example 7, 7-(2-Imidazol-1-yl-1-phenyl-ethoxy)-4-m-tolyl-chromen-2-one] |  | 1.4 µM | 0.5 µM |  |
| Cc1ccccc1-c1cc(=O)oc2cc(OC(Cn3ccnc3)c3ccccc3)ccc12 (stereo not drawn) [Example 8, 7-(2-Imidazol-1-yl-1-phenyl-ethoxy)-4-o-tolyl-chromen-2-one] |  | 0.92 µM | 0.98 µM |  |
| O=c1cc(-c2ccc(Cl)cc2)c2ccc(OC(Cn3ccnc3)c3ccccc3)cc2o1 (stereo not drawn) [Example 9, 4-(4-Chloro-phenyl)-7-(2-imidazol-1-yl-1-phenyl-ethoxy)-chromen-2-one] |  | 1.6 µM | 1.8 µM |  |
| O=c1cc(-c2ccccc2Cl)c2ccc(OC(Cn3ccnc3)c3ccccc3)cc2o1 (stereo not drawn) [Example 10, 4-(2-Chloro-phenyl)-7-(2-imidazol-1-yl-1-phenyl-ethoxy)-chromen-2-one] | > 0.2 µM | 0.29 µM | 0.14 µM |  |
| Cc1ccc(-c2cc(=O)oc3cc(OC(Cn4ccnc4)c4ccccc4)ccc23)cc1 (stereo not drawn) [Example 11, 7-(2-imidazol-1-yl-1-phenyl-ethoxy)-4-p-totyl-chromen-2-one] | 1 µM | 0.52 µM | 0.67 µM |  |
| C=CCc1c(OC(Cn2ccnc2)c2ccccc2)ccc2c(-c3ccccc3)cc(=O)oc12 (stereo not drawn) [Example 12, 8-allyl-7-(2-imidazol-1-yl-1-phenyl-ethoxy)-4-phenyl-chromen-2-one] | > 1 µM | 0.64 µM | 0.63 µM |  |
| COC(=O)[C@H](CCSC)NC(=O)[C@H](/C=C\[C@@H](/C=C/[C@@H](N)CS)C(C)C)Cc1ccccc1 [Example B1086] |  |  |  | tumor growth inhibition (human colon carcinoma): inhibit tumor growth; tumor growth inhibition [2]: inhibit tumor growth; tumor growth inhibition [3]: inhibit tumor growth |
| CSCC[C@H](NC(=O)c1ccc(NC[C@@H](N)CS)cc1-c1ccccc1)C(=O)O [FT1276] |  |  |  | block of tumor growth [4]: selectively block tumor growth |
| CC[C@H](C)[C@@H](CO[C@@H](Cc1ccccc1)C(=O)N[C@@H](CCS(C)(=O)=O)C(=O)OC(C)C)NC[C@@H](N)CS [L-744,832] |  |  |  | tumor regression [5]: caused tumor regression |
